Experimental data as given in patent US6344457B1, “Amino acid derivatives inhibiting extracellular matrix metalloproteinase and TNF alpha release” (Chiesi Farmaceutici S.p.A., priority 1997, dated 2002).

Legend:
[1] = target: 92 kDa gelatinase of human origin (Homo sapiens, UniProt P14780); experiment: Activity on gelatinase, radiomarked gelatin; format: biochemical; details: test performed with radiomarked gelatin; read-out: C150 (nM) gelatinase 92 kDa*
Protocol: The anti-gelatinase activity of the compounds according to the invention also was determined on 92 kDa or 72 kDa gelatinase of human origin, in accordance with the operating mode described by Harris, E. D., Krane, S. M.; (Biochem. Biophys. Acta, 258, 566-576, 1972).
(§1) The gelatinase was incubated at 37° C. for 16 hours with radiomarked gelatin, and its activity was determined by the release of the soluble peptides produced by the enzymatic breakdown of the gelatin. The inhibiting concentration C150 for each compound was determined by measurement of the activity of the enzyme in the presence of the inhibitor at a concentration ranging between 10^−7 and 10^−12 M (the inhibitor is dissolved in the same manner as for collagenase).

[2] = target: T1, collagenase of the human monocytic stock U937 (Homo sapiens, UniProt P03956); experiment: Activity on collagenase; format: biochemical; details: radiomarked collagen, 27° C., 16 hours; read-out: C150 (nM) collagenase
T1 construct: the collagenase of the human monocytic stock U937; endogenous in cells; host or cells: U937 human monocytic cell line
T1 sequence (P03956 100-469): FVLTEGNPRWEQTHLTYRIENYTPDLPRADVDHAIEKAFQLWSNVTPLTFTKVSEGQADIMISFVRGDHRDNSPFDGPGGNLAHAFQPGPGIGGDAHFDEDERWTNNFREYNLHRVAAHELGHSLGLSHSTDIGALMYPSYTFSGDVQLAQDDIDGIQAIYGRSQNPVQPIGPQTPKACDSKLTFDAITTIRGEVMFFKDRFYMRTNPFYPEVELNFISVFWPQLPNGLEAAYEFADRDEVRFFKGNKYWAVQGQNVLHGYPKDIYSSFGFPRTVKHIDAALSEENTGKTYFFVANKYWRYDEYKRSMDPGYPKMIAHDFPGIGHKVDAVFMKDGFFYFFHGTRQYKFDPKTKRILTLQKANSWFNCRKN
Protocol: The collagenase was incubated at 27° C. for 16 hours with radiomarked collagen, and its activity was determined by the release of soluble peptides produced by the enzymatic breakdown of the collagen. The inhibiting concentration C150 for each compound was determined by measurement of the activity of the enzyme in the presence of the inhibitor at a concentration ranging between 10^−7 and 10^−12 M (the inhibitor is dissolved at a concentration of 10^−2 M in DMSO, then diluted successively by tenths in the buffer: Tris, HCl 150 mM, pH 7.5; NaCl 0.15 M; CaCl2 10 mM).

[3] = target: stromelysine of human origin (Homo sapiens, UniProt P08254); experiment: Activity on stromelysine; format: biochemical; details: radiomarked transferrin, 37° C., 16 hours; read-out: C150 (nM) stromelysine
stromelysine of human origin, sequence (P08254 100-477): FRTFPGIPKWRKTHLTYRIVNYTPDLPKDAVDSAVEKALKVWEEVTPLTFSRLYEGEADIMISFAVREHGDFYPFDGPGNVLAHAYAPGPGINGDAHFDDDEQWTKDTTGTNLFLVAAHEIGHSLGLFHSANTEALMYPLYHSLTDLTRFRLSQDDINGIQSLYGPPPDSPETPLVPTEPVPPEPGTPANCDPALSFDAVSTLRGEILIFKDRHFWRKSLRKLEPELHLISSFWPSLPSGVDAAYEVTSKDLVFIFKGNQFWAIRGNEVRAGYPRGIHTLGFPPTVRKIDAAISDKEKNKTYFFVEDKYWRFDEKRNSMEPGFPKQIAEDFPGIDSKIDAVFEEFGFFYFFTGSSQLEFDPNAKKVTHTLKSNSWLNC
Protocol: as §1, with “stromelysine” for “gelatinase”, “transferrin,” for “gelatin,”, “transferrin.” for “gelatin.”

[4] = target: T2, 72 kDa gelatinase of human origin (Homo sapiens, UniProt P08253); experiment: Activity on gelatinase, synthetic substrate; format: biochemical; details: performed on synthetic substrate; read-out: C150 (nM) gelatinase 72 kDa**
T2 sequence (P08253 110-660): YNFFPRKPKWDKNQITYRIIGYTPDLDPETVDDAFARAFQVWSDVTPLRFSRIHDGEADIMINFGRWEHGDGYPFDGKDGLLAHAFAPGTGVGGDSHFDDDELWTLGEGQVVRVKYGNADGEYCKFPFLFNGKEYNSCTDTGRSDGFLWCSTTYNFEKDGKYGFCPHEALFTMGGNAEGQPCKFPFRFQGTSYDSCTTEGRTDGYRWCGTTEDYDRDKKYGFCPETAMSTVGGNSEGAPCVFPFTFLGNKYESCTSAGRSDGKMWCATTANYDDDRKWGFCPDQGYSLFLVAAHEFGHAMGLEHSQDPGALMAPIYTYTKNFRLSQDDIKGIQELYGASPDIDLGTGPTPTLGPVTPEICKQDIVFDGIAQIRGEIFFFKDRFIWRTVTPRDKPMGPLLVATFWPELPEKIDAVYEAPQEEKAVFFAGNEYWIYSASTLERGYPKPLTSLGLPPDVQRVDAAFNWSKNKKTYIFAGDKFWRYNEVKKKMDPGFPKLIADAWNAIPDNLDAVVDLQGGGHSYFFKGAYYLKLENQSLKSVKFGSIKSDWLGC
Protocol: The anti-gelatinase activity of the compounds according to the invention was determined on 72 kDa gelatinase of human origin, in accordance with the operating mode described by Knight, C. G., Willenbrock, F., Murphy, G. (FEBS Letters, 296 (3), 263-266, 1992).
The gelatinase was incubated at 37° C. for 10 minutes, and its activity was determined by the increase in fluorescence of the product of Mca-Pro-Leu breakdown of the Mca-Pro-Leu-Gly-Leu-Dpa-Ala-Arg-NH2 synthetic substrate.
The inhibiting concentration C150 for each compound was determined by measurement of the activity of the enzyme in the presence of the inhibitor at a concentration ranging between 10^−7 and 10^−12 M (the inhibitor is dissolved at a concentration of 10^−2 M in DMSO, then diluted successively by tenths in DMSO to 10^−4 M, then in the buffer: Tris, HCl 50 mM+0.05% Brij 35; CaCl2 10 mM; NaCl 0.15 M).

[5] = system: release of TNF from the peritoneal macrophages of mice stimulated by LPS; experiment: Inhibition of the production of TNF in vitro; format: cell-based; details: Peritoneal macrophage; mouse peritoneal macrophages, LPS 100 ng/ml; read-out: C150 (μM) TNF
Protocol: The capacity of the compounds according to this invention to inhibit the release of TNF was determined from the peritoneal macrophages of mice stimulated by LPS (Lang, F., Robert, […], Petit, J. Y., J. Pharmacol. Exp. Ther., 275, 171-176, 1995). After an adhesion phase of 2 hours, the cells were treated for 1 hour with the compound to be tested at concentrations ranging between 10^-6 to 10^-9 M (the inhibitor is dissolved in DMSO at 10^-2 M, then at 5.10^-3 M in RPMI 1640 with 5% SVF, then diluted successively by tenths in the same medium), then stimulated by the addition of LPS (100 ng/ml in final concentration). Three hours later, the biological activity of the TNF in the supernatants was determined by a cytotoxicity test using the murine stock L929 in accordance with the operating procedure described by Band, G., Lin, […]., Evans, C. H. (Bioch. Biophys. Acta, 1134, 309-318, 1982). The pg/ml concentration of the TNF of the samples was determined from a murine αTNF standard curve, thus making it possible to define the inhibiting concentration […] of the compounds studied.

metalloproteinase (MMP) = details: Bioorg. Med. Chem. Letters (1996), 6, 1719-1724; cited from earlier work

92 kDa gelatinase of human origin, sequence (P14780 94-707): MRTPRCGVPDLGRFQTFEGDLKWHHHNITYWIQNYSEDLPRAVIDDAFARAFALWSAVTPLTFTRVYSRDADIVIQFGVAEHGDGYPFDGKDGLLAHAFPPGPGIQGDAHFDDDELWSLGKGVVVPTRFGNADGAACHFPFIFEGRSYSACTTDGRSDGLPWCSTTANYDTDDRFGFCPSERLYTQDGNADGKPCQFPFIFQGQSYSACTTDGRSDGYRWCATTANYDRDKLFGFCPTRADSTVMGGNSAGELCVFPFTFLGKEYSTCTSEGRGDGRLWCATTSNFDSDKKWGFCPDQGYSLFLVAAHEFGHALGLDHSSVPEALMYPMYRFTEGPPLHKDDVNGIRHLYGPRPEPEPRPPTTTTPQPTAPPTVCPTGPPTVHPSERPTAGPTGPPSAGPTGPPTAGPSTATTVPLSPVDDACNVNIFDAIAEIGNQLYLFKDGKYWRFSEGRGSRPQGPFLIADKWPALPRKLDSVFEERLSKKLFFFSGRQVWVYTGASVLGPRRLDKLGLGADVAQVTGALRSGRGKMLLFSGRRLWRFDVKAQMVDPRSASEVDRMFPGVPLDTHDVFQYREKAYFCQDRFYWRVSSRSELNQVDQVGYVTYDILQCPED

| IC50 [1] | IC50 [2] | IC50 [3] | IC50 [4] | IC50 [5] | melting point | SMILES | activity on gem disubstitution, versus compound VII (metalloproteinase (MMP)) |
| --- | --- | --- | --- | --- | --- | --- | --- |
| 54 nM | 50 nM | > 1000 nM | 6.7 nM | 3.2 µM |  | CNC(=O)[C@H](Cc1ccc(Cl)cc1)NC(=O)[C@](O)(CC(C)C)[C@H](O)C(=O)NO [Example 3, N-2 (S) [(S) hydroxy (S) hydroxycarbamoylmethyl] 2(S) hydroxy 4-methyl pentanoyl L-4-chlorophenylalanine N-methylamide] |  |
| 10 nM | 36 nM | 29 nM | 1.6 nM |  | 174.2 °C (dec.) | CNC(=O)[C@H](Cc1ccccc1)NC(=O)[C@](O)(CC(C)C)[C@H](C)C(=O)NO [Example 4, N-2(S)[1(S)(hydroxycarbamoyl)ethyl] 2(S) hydroxy4-methyl pentanoyl L-phenyl alanine N-methylamide] |  |
| 2 nM | 11 nM | 50 nM | 1.6 nM | 2.2 µM |  | CNC(=O)[C@H](Cc1ccc(N)cc1)NC(=O)[C@](O)(CC(C)C)[C@H](C)C(=O)NO [Example 9, N-2(S)[1(S) (hydroxycarbamoyl) 1(S)ethyl]2-(S) hydroxy-4-methyl pentanoyl L-4-amino phenylalanine N-methylamide] |  |
| 2 nM | 10 nM | 37 nM | 2 nM | 0.61 µM | 214 °C (dec.) | CNC(=O)[C@H](Cc1ccc(Br)cc1)NC(=O)[C@](O)(CC(C)C)[C@H](C)C(=O)NO [Example 11, N-2(S)[-1(S)(hydroxycarbamoyl)-1 ethyl]-2(S) hydroxy 4-methyl pentanoyl L-4-bromophenylalanine N-methylamide] |  |
| 0.005 nM | 10 nM | 20 nM | 1.6 nM | 0.15 µM |  | CSCCNC(=O)[C@H](Cc1ccc(Cl)cc1)NC(=O)[C@](O)(CC(C)C)[C@H](C)C(=O)NO [Example 13, N-2(S)[-1-(S)(hydroxycarbamoyl)-1 ethyl]-2(S) hydroxy-4-methylpentanoylL-4-chlorophenylalanine N-(2 methylthio-1-ethyl) amide] |  |
| 0.2 nM | 2 nM | 12 nM | 0.3 nM | 0.4 µM |  | CNC(=O)[C@H](Cc1ccc(I)cc1)NC(=O)[C@](O)(CC(C)C)[C@H](C)C(=O)NO [Example 14, N-2(S)[1(S) hydroxycarbamoyl-1 ethyl]-2(S) hydroxy 4 methyl pentanoyl L-4-iodophenylalanine N-methylamide] |  |
| 0.001 nM | 32 nM | 38 nM | 1.3 nM | 4.5 µM |  | CSCCNC(=O)[C@H](Cc1ccc(I)cc1)NC(=O)[C@](O)(CC(C)C)[C@H](C)C(=O)NO [Example 15, N-2(S)[1(S) hydroxycarbamoyl-1 ethyl]2(S) hydroxy 4-methylpentanoyl L-4-iodophenylalanine N-(2 methylthio-1-ethyl) amide] |  |
| 2 nM | 14 nM |  | 1.2 nM | 0.6 µM | 186.5 °C | CNC(=O)[C@H](Cc1ccc(F)cc1)NC(=O)[C@](O)(CC(C)C)[C@H](C)C(=O)NO [Example 16, N-2(S)[1(S)hydroxycarbamoyl-1 ethyl]-2(S) hydroxy 4-methylpentanoyl L-4-fluorophenylalanine N-methylamide] |  |
| 0.002 nM | 2 nM | 6 nM | 0.4 nM | ≤ 0.14 µM | 216 °C (dec.) | CNC(=O)[C@H](Cc1ccc(Cl)c(Cl)c1)NC(=O)[C@](O)(CC(C)C)[C@H](C)C(=O)NO [Example 18, N-2(S)[1(S)hydroxycarbamoyl-1 ethyl]-2 (S) hydroxy 4-methylpentanoyl L-3,4-dichlorophenylalanine N-methylamide] |  |
| 80 nM | 26 nM |  | 13 nM |  | 199 °C (dec.) | CNC(=O)[C@H](Cc1ccc(OC)cc1)NC(=O)[C@](O)(CC(C)C)[C@H](O)C(=O)NO [Example 29] |  |
| 7 nM | 11 nM | > 1000 nM |  | 3.6 µM | 194.1 °C | CNC(=O)[C@H](Cc1ccc(Cl)c(Cl)c1)NC(=O)[C@](O)(CC(C)C)[C@H](O)C(=O)NO [Example 30] |  |
|  |  |  |  |  |  | CNC(=O)[C@H](Cc1ccc(OC)cc1)NC(=O)C1(CC(=O)NO)CCc2ccccc21 (stereo partly drawn) [IX] | significant loss of activity |
|  |  |  |  |  |  | CNC(=O)[C@H](Cc1ccc(OC)cc1)NC(=O)C(C)(CC(=O)NO)c1ccccc1 (stereo partly drawn) [VIII] | significant loss of activity |
| 7 nM | 5 nM | 10 nM | 0.6 nM | 0.14 µM |  | CNC(=O)[C@H](Cc1ccc(OC)cc1)NC(=O)[C@H](CC(C)C)[C@H](C)C(=O)NO [drawing 111, reference compound] |  |
